# Measurements published in US20240075029A1, “LUMINOL FOR THE PROPHYLAXIS AND THE TREATMENT OF SEQUELAE OF A SARS-COV-2 INFECTION” (METRIOPHARM AG, priority 2020, published 2024).
# Like-named read-outs stand apart in the source and are kept apart here.
# Assays:
# [1] = system: murine peritoneal macrophages
# Description: Female C57131/6 mice (6-8 weeks old) were purchased from Envigo (San Petro al Natisone, Udine, Italy) and housed under standard laboratory conditions (specific-pathogen free). Food and water were applied ad libitum. Animal handling and the study protocol were in accordance with international guidelines.
# Four days after i.p. injection of 3% thioglycolate medium (w/v in distilled water; St Louis, MO USA), murine peritoneal macrophages (PM) were isolated according to the protocol of Zhang et al. (Curr. Protoc. Immunol. 2008, Chapter 14, Unit 14.1).
# Briefly, cells were collected by injecting 10 ml of complete medium (DMEM/F12 Medium containing 10% fetal calf serum) into the peritoneal cavity using a 30 cc syringe attached to a 19-G needle, followed by slowly withdrawing the lavage fluid. Cells were washed twice in PBS (phosphate buffered saline) and counted.
# One hour prior to LPS (lipopolysaccharide) stimulation (0.1 μg/ml; Escherichia coli 055:B5, St Louis, MO USA), cells (0.5×10^6 cells/well in 24-well plates with 1 ml total volume of medium) were pre-treated with scalar concentrations of 5-amino-2,3-dihydro-1,4-phthalazinedione sodium salt (ranging from 1 mM to 0.025 mM). Two independent experiments (each using cells pooled from three mice) were performed and secreted cytokine levels were determined 24, 48 and 72 h after LPS stimulation using ELISA technique.
# [2] = system: cigarette smoke-induced 3-nitrotyrosine formation in the lung parenchyma; conditions: for 3-nitrotyrosine stained surface area, mean ± SEM: n=5
# Description: The isolated, ventilated and perfused mouse lung system (ILU) is an established model for studying acute effects of various conditions and drugs on lung parenchyma and vasculature. It is mainly used for examining effects of hypoxia and for evaluating the efficacy of potential drugs on the hypoxic pulmonary vasoreaction (cf. Weissmann et al. (2006) Proc Natl Acad Sci USA 103: 19093-19098).
# C57BL/6J mice (n=25, 5 per group; male/female, 3-6 months, 20-30 g; Charles River GmbH, Sulzfeld, Germany) were anesthetized with a ketamine (100 mg/kg body weight) and xylazine (20 mg/kg body weight) intraperitoneal injection (Ceva Tiergesundheit GmbH, Dusseldorf, Germany) containing heparin (50 I.E. heparin/g body weight; Ratiopharm GmbH, Ulm, Germany). […] Lungs were ventilated in an isolated chamber using normoxic gas (21% O2, 5% CO2, 74% N2; 150 breaths per minute at the PEEP (positive end-expiratory pressure) of 3 cm H2O) and perfused with a modified Krebs-Henseleit buffer (120.0 mM NaCl, 4.3 mM KCl, 1.1 mM KH2PO4, 2.4 mM CaCl2, 1.3 mM MgCl2, 13.14 mM glucose, 0.25 mM hydroxyethyl starch 200000/0.5, 25.0 mM NaHCO3 adjusted to a constant pH range of […] L-arginine; Serag-Wissner GmbH & Co. KG, Naila, Germany) at a temperature of 37° C. Lung weight, right and left ventricle pressure, as well as ventilatory pressure were monitored and recorded during the whole experimental procedure. After 5-10 minutes, when the lung was properly flushed and all the parameters were stable, 5-amino-2,3-dihydro-1,4-phthalazinedione sodium salt was applied by adding 150 μl of a stock solution to 15 ml of the circulating perfusion buffer. The substance was applied 10 minutes prior to the first cigarette smoke application. Cigarette smoke was applied via trachea while lung is perfused with the buffer containing 5-amino-2,3-dihydro-1,4-phthalazinedione sodium salt. […] 50 ml of the cigarette smoke were taken via a syringe and applied to the lung via trachea (FIG. 4A) in deep breaths (periodic inflation for 3-4 s) over a period of 5 min. The application was done manually while carefully monitoring the inspiratory pressure to avoid damage of the lung. The cigarette smoke application was repeated three times with a 1 hour break in-between.
# Five treatment groups (n=5, respectively) were investigated: • A: room air exposure • B: cigarette smoke+diluent (buffer solution) • C: cigarette smoke+0.5 mM 5-amino-2,3-dihydro-1,4-phthalazinedione sodium salt • D: cigarette smoke+1 mM 5-amino-2,3-dihydro-1,4-phthalazinedione sodium salt • E: cigarette smoke+2 mM 5-amino-2,3-dihydro-1,4-phthalazinedione sodium salt
# 5-amino-2,3-dihydro-1,4-phthalazinedione sodium salt Form I was dissolved in water for injection (vehicle) at the required concentrations described above. Stock solutions were prepared in water for injection. Further 1:100 dilutions were made with modified Krebs-Henseleit buffer (see above). Stock solutions were stored at −70° C. in appropriate aliquots. The required amount of stock solution was thawed, and the corresponding working solution was prepared for immediate use.
# One hour after the third cigarette smoke application lungs were removed from the system and fixed by inflating with formalin solution (via trachea) at the pressure of 12-15 cm H2O for two hours at room temperature. Afterwards the fixed lungs were kept in PBS (phosphate buffer saline, see below) at +4° C. until further dehydration and paraffin embedding. Paraffin blocks were cut 3 μm thick, dried overnight at 37° C. and stained for 3-nitrotyrosine (3-NT).
# chronic fatigue = conditions: human, in vivo
# dyspnea = conditions: human, in vivo
# joint pain = conditions: human, in vivo
# SARS-CoV-2 = conditions: Vero B4 cell culture; Schumann et al. (2020); cited from earlier work
# [3] = 1 mM, pre-treatment 1 h prior to LPS (0.1 μg/ml), LPS only = 100%, C57 mice PMs
smiles,measurement,setting,value
"Nc1cccc2c(=O)[nH][nH]c(=O)c12.[Na] [5-amino-2,3-dihydro-1,4-phthalazinedione sodium salt]",reduction of IL-1-beta level,[1]; [3],~50%
same,reduction of IL-6 level,[1]; [3],~80%
same,reduction of IL-12 level,[1]; [3],~60%
same,reduction of TNF-alpha level,[1]; [3],about 40%
same,cytokine reduction in PMs of a second mouse strain (Balb/c),"[1]; Balb/c PMs, six concentrations ranging from 1 mM to 0.25 mM, data not shown",clear dose-dependency
same,cytokine secretion of unstimulated murine PMs,"[1]; no LPS stimulation, data not shown",did not affect
same,"cigarette smoke induced 3-nitrotyrosine formation (immunohistochemistry, in words)",[2]; 0.5 mM in perfusion buffer,moderate effect
same,"cigarette smoke induced 3-nitrotyrosine formation (immunohistochemistry, in words)",[2]; 1 mM in perfusion buffer,almost completely abolished
same,"cigarette smoke induced 3-nitrotyrosine formation (immunohistochemistry, in words)",[2]; 2 mM in perfusion buffer,almost completely abolished
same,"3-nitrotyrosine stained surface area, mean ± SEM",[2]; cigarette smoke + 0.5 mM in perfusion buffer,2.24 ± 0.28 % area
same,"3-nitrotyrosine stained surface area, mean ± SEM",[2]; cigarette smoke + 1 mM in perfusion buffer,0.72 ± 0.26 % area
same,"3-nitrotyrosine stained surface area, mean ± SEM",[2]; cigarette smoke + 2 mM in perfusion buffer,0.37 ± 0.13 % area
same,symptoms of chronic fatigue,chronic fatigue,continuous waning of the symptoms
same,physical performance (dyspnea),dyspnea,continuous improvement of the physical performance
same,joint pain,joint pain,continuous waning of the joint pain
same,replication of SARS-CoV-2,SARS-CoV-2,almost completely block
